According to publication PMC9131871, “Impact of Micropolymorphism Outside the Peptide Binding Groove in the Clinically Relevant Allele HLA-C*14 on T Cell Responses in HIV-1 Infection” (Journal of Virology, 2022):
“Also recorded” adds a separate entry of the source.

Legend:
HLA-C*14:02 = HLA-C*14:02 (Homo sapiens, UniProt P10321, A176E/A330V/A35S/A97T/C350S/D114A/D33S/L171W/L180R/L218V/M285V/M309V/M331V/P208H/Q277E/Q291P/R121W/R243W/S123F/S297R/S48A/T329A/T363A/V319A); experiment: LC-MS/MS identification of HLA-bound HIV-1 peptides from NL4-3-infected .221-C1402 cells; format: binding; set-up: key: ●: Closed circles indicate the peptide which was identified in HLA-C*1402 or/and -C*1403 expressing cells; conditions: HIV-1 NL4-3-infected .221-C1402 cells, W6/32 immunoprecipitation, two independent replicate experiments
Procedure: (§1) 721.221 cells expressing CD4 and HLA-C*14:02 (.221-C1402) or HLA-C*14:03 (.221-C1403) were infected with the laboratory-adapted NL4-3 HIV-1 strain. HLA-peptide complexes were isolated from cell lysates by immunoprecipitation with the anti-HLA class I antibody W6/32; then, peptides were eluted, fractionated by high-performance liquid chromatography (HPLC), and finally analyzed by LC-MS/MS. Two independent replicate experiments were performed, in which a total of 7,970 and 8,447 unique 8- to 13-mer peptide sequences were identified from .221-C1402 and .221-C1403 cells, respectively (Fig. 1A). Of these peptides, 6,163 were identified in both the C*14:02- and C*14:03-bound peptide data sets, while other peptides were detected in the acid-eluted fraction from only a single allele. […] These motifs are consistent with the HLA-C*1402/03 peptide motifs previously estimated using reported epitopes ([29]).
(§2) .221-C1402 and .221-C1403 cells were infected with HIV-1 NL4-3 in a low volume of RPMI 1640 medium (Thermo Fisher) containing 10% fetal bovine serum (FBS), 2 mM L-glutamine, 100 U/mL penicillin, 100 μg/mL streptomycin, and 10 mM HEPES (R10). Fifty microliters of NL4-3 stock virus (Reverse transcriptase activity (RT) value = 4 × 10^2 ng/mL) was added to 8 × 10^6 .221-C1402 cells or .221-C1403, and the cells were then incubated for 1.5 h at 37°C, after which 20 mL of R10 was added and the cells were cultured overnight. At day 1 postinfection, a further 20 mL R10 was added, and cells were split (1:2) on day 2. On day 3 postinfection, the proportion of cells infected with HIV-1 was determined by intracellular p24 staining, as previously described ([46]). Infected flasks were then harvested for immunoprecipitation of HLA-peptide complexes.
(§3) .221-C1402 cells or .221-C1403 cells infected with NL4-3 (1.5 × 10^8 to 2 × 10^8 cells) were harvested, washed in phosphate-buffered saline (PBS), and lysed in 5 mL of lysis buffer (1% IGEPAL 630, 300 mM NaCl, 100 mM Tris [pH 8.0], plus protease inhibitors) at 4°C for 45 min. Two centrifugation steps (2,000 × g for 10 min followed by 20,000 × g for 30 min at 4°C) were next employed to clear the lysates of cell debris prior to overnight capture of HLA-peptide complexes on W6/32-coated protein A‐Sepharose beads. W6/32-bound HLA-peptide complexes were sequentially washed with 10 to 20 mL of wash buffer 1 (0.005% IGEPAL, 50 mM Tris [pH 8.0], 150 mM NaCl, 5 mM EDTA), wash buffer 2 (50 mM Tris [pH 8.0], 150 mM NaCl), wash buffer 3 (50 mM Tris [pH 8.0], 400 mM NaCl), and finally wash buffer 4 (50 mM Tris [pH 8.0]) under gravity flow in Econo-Column glass chromatography columns (Bio-Rad). Peptide-HLA complexes were eluted from the beads with 5 mL of 10% acetic acid and, after drying under vacuum, were loaded onto a 4.6- by 50-mm ProSwift RP-1S column (Thermo Fisher Scientific) and eluted from an Ultimate 3000 HPLC system (Thermo Scientific) using a 500-μL/min flow rate over 10 min from 2% to 34% buffer B (0.1% trifluoroacetic acid [TFA] in acetonitrile) in buffer A (0.1% TFA in water). Alternate fractions were pooled to give two final peptide fractions that were dried for LC-MS/MS analysis.
(§4) Each HPLC-eluted sample was resuspended in 20 μL loading buffer, and 9 μL of it was injected onto a 3-μm-particle-size 0.075-mm by 150-mm Acclaim PepMap RSLC C18 column and further loaded onto a 2-μm-particle-size, 75-μm by 50-cm Acclaim PepMap RSLC C18 column using an Ultimate 3000 nUPLC system (Thermo Scientific). A linear gradient of 3 to 25% buffer B (0.1% formic acid, 5% dimethyl sulfoxide [DMSO] in acetonitrile) in buffer A (0.1% formic acid, 5% DMSO in water) was applied over 1 h to elute peptides from the column (flow rate of […]). Peptides were introduced, using an Easy-Spray source at 2,000 V at 40°C, into a Fusion Lumos mass spectrometer (Thermo Scientific). The ion transfer tube temperature was set to 305°C. […]

HLA-C*14:03 = HLA-C*14:03 (Homo sapiens, UniProt P10321, A176E/A330V/A35S/A97T/C350S/D114A/D33S/L171W/L180R/L218V/M285V/M309V/M331V/P208H/Q277E/Q291P/R121W/R243W/R45H/S123F/S297R/S48A/T329A/T363A/V319A); experiment: LC-MS/MS identification of HLA-bound HIV-1 peptides from NL4-3-infected .221-C1403 cells; format: binding; set-up: key: ●: Closed circles indicate the peptide which was identified in HLA-C*1402 or/and -C*1403 expressing cells; conditions: HIV-1 NL4-3-infected .221-C1403 cells, W6/32 immunoprecipitation, two independent replicate experiments
Procedure: as §1, §2, §3, §4

[1] = test system: PBMCs from HIV-1-infected HLA-C*14:02+ or HLA-C*14:03+ individuals; experiment: ex vivo IFN-γ ELISPOT assay; format: cell-based, human; conditions: 1 μM peptide; for HLA-C*14 subtype of the individuals in whom responses were detected: initial screening, 10 HLA-C*14:02+ and 10 HLA-C*14:03+ individuals
Description: To clarify whether these HLA-C*14:02- and C*14:03-binding HIV-1 peptides were T cell epitopes, we investigated T cell responses to these peptides in HIV-1-infected individuals. We assessed T cell targeting of 14 putative HIV-1 epitope sites by testing responses to the 14 NL4-3 sequence-based peptides and 9 variant peptides in 10 HLA-C*14:02^+ and 10 HLA-C*14:03^+ treatment-naive individuals living with HIV-1 subtype B using ex vivo gamma interferon (IFN-γ) ELISPOT assays. To identify HLA-C*14-restricted immunodominant epitopes, we investigated whether these peptides were recognized by virus-specific T cells in 20 individuals enabling detection of epitopes typically targeted in >5% of HLA-C*14^+ individuals. […] T cell responses to variant versions of the Gag LY9, Pol KM9, and Nef IF8 peptides were detected in a number of individuals similar to the number with responses to their NL4-3 sequence-based counterparts (Fig. 3A).
FIG 3 T cell responses to HLA-C*14:02- and/or HLA-C*14:03-binding HIV-1 peptides. (A) T cell responses to HLA-C*14:02/03-binding peptides in 20 chronically HIV-1-infected Japanese individuals with HLA-C*14:02 or HLA-C*14:03. T cell targeting of 14 putative epitopes was analyzed by testing responses to 14 NL4-3 sequence-based peptides and 9 peptides that were sequence variants thereof in ex vivo IFN-γ ELISPOT assays (peptides tested at a concentration of 1 μM). A positive response was defined as >100 spots/10^6 PBMCs (indicated by the horizontal dotted line). (B) Correlation between peptide binding to HLA-C*14:02 or HLA-C*14:03 and the frequency of responders to these peptides in HLA-C*14:02^+ (blue) and HLA-C*14:03^+ (red) individuals for NL4-3 sequence-based versions of the peptides only (left) or both NL4-3 sequence-based and variant peptides (right). Statistical analyses were performed using Pearson's correlation test.
PBMCs were separated from whole blood and stored at −80°C. ELISPOT assays were performed as previously described ([13]). Briefly, 1 × 10^5 PBMCs from HIV-1-infected individuals and a 1 μM concentration of each HLA-C*14:02- and -C*14:03-eluted HIV-1 peptide were added to 96-well polyvinylidene plates (Millipore) that had been coated overnight with 5 μg/mL anti-IFN-γ MAb 1-D1K (Mabtech). The plates were incubated for 16 h at 37°C in 5% CO2, and then the cells were stained as previously described in detail ([13]). The spots were counted with an Eliphoto-Counter instrument (Minerva Teck). The number of spots was calculated per 10^6 PBMCs; 100 spots/10^6 PBMCs was defined as a positive response, as described previously ([13]).

[2] = 10 HLA-C*14:02+ and 10 HLA-C*14:03+ treatment-naive individuals, positive >100 spots/10^6 PBMCs

| Sequence | C1402: peptide identified by LC-MS/MS in HLA-I eluate (HLA-C*14:02) | C1403: peptide identified by LC-MS/MS in HLA-I eluate (HLA-C*14:03) | T cell responses to peptide detected [1, 2] | also measured |
| --- | --- | --- | --- | --- |
| IYHTQGYFP [Nef IP9, HIV-1 NL4-3 Nef 114–122 peptide …] | ● | ● |  |  |
| VWGRDNNSL [Pol VWL9, HIV-1 NL4-3 Pol 33–41 peptide …, eluted only, not synthesized] | ● | ● |  |  |
| AFVTIGKIGNM [Env AM11, HIV-1 NL4-3 Env 316–326 peptide […], eluted only, not synthesized] |  | ● |  |  |
| KYHNNWRAM [Pol KM9-4N, variant of Pol KM9, …, present in Japanese cohort viruses] |  |  | detected in one or more individuals | HLA-C*14 subtype of the individuals in whom responses were detected [1]: detected in only HLA-C*14:02^+ or HLA-C*14:03^+ individuals |
| AFPQGKAREF [Pol AF10, HIV-1 NL4-3 Pol 7–16 peptide […], eluted only, not synthesized] | ● | ● |  |  |
| VYHTQGYF [Nef IF8-1V, variant of Nef IF8, VYHTQGYF, present in Japanese cohort viruses] |  |  | detected in one or more individuals |  |
| VTIGKIGNM [Env VM9, HIV-1 NL4-3 Env 318–326 peptide …, eluted only, not synthesized] | ● |  |  |  |
| FYVDGAANRET [Pol FT11, HIV-1 NL4-3 Pol 595–605 peptide […]] |  | ● |  |  |
| SFNISTSI [Env SI8, HIV-1 NL4-3 Env 158–165 peptide SFNISTSI, eluted only, not synthesized] |  | ● |  |  |
| PQGKAREF [Pol PF8, HIV-1 NL4-3 Pol 9–16 peptide PQGKAREF, eluted only, not synthesized] |  | ● |  |  |
| FHHVAREL [Nef FL8, HIV-1 NL4-3 Nef 191–198 peptide FHHVAREL] | ● | ● |  |  |
| VYYDPSKDLIA [Pol VA11, HIV-1 NL4-3 Pol 472–482 peptide […]] |  | ● |  |  |
| LFNTVAVL [Gag LL8-2F5V, variant of Gag LL8, LFNTVAVL, present in Japanese cohort viruses] |  |  | detected in one or more individuals; also recorded: weak response | number of individuals with T cell response, of 20 tested [1, 2]: one; HLA-C*14 subtype of the individuals in whom responses were detected [1]: detected in only HLA-C*14:02^+ or HLA-C*14:03^+ individuals |
| VYLAWVPAH [Pol VH9, HIV-1 NL4-3 Pol 686–694 peptide …] |  | ● |  |  |
| LYNTIAVL [Gag LL8, HIV-1 NL4-3 Gag 78–85 peptide LYNTIAVL eluted from HLA-C*14-expressing cells] | ● | ● | No T cell recognition; also recorded: no strong T cell responses |  |
| YTSLIHSLI [Env YI9, HIV-1 NL4-3 Env 638–646 peptide …, eluted only, not synthesized] | ● |  |  |  |
| LFNTVAVLY [Gag LY9-2F5V, variant of Gag LY9, …, present in Japanese cohort viruses] |  |  | detected in one or more individuals |  |
| AFHHMAREK [Nef AL9-5M9K, variant of Nef AL9, …, present in Japanese cohort viruses] |  |  | not detected in any of the 20 individuals |  |
